In US7772263B2, “Compounds for the treatment of inflammatory disorders” (Schering Corporation, priority 2006, dated 2010):

Target: T1, purified catalytic domain of recombinant human TACE (rhTACEc) (Homo sapiens, UniProt P78536, N452Q/S266A)
T1 construct: rhTACEc, Residue 215 to 477 with two mutation (S266A and N4520) and a 6×His tail; 6xHis (C); made in house; host or cells: baculovirus/Hi5 insect cells
Experiment: TACE kinetic assay, cleavage of internally quenched fluorescent peptide substrate SPDL-3
Format: biochemical
Conditions: TACE inhibition, Table 1001; read-out: Ki Rating

T1 sequence (P78536 215-477 S266A/N452Q limits assumed): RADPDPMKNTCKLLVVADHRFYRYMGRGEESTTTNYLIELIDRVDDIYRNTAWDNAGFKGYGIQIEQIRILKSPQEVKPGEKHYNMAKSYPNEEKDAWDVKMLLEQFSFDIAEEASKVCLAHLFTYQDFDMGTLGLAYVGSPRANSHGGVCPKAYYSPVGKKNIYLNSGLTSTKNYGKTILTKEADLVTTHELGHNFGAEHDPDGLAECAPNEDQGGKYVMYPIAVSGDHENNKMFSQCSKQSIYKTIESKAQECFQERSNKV

Row | Structure (SMILES) | Ki [nM]
1 | COc1ccc2c(c1)C(=O)N(CC1(C#Cc3cnn(C)c3)NC(=O)NC1=O)C2 (centres unmarked) [Compound 312B] | < 5
2 | COc1ccc2c(c1)C(=O)N(CC1(C#Cc3cccnc3)NC(=O)NC1=O)C2 (centres unmarked) [Compound 312] | < 5
3 | COc1ccc2c(c1)C(=O)N(CC1(C#Cc3ccc(F)cc3F)NC(=O)NC1=O)C2 (centres unmarked) [Compound 315A] | < 5
4 | COc1ccc2c(c1)C(=O)N(CC1(C#Cc3ccc(F)cc3)NC(=O)NC1=O)C2 (centres unmarked) [Compound 315] | < 5
5 | COc1ccc2c(c1)C(=O)N(C[C@@]1(C#Cc3cccnc3)NC(=O)NC1=O)C2 [Compound 400B] | < 5
6 | C#C[C@]1(CN2Cc3ccc(OC)cc3C2=O)NC(=O)NC1=O [Compound 401] | < 5
7 | COc1ccc2c(c1)C(=O)N(C[C@@]1(C#Cc3cncc(-c4cnn(C)c4)c3)NC(=O)NC1=O)C2 [Compound 409C] | < 5
8 | COc1ccc2c(c1)C(=O)N(C[C@@]1(C#Cc3cncc(N4CCCC4)c3)NC(=O)NC1=O)C2 [Compound 410B] | < 5
9 | COc1ccc2c(c1)C(=O)N(C[C@@]1(C#Cc3ccc(F)cc3)NC(=O)NC1=O)C2 [Compound 411] | < 5
10 | CNc1nc2ccc(C#C[C@]3(CN4Cc5ccc(OC)cc5C4=O)NC(=O)NC3=O)cc2s1 [Compound 412D] | < 5
11 | COc1ccc2c(c1)C(=O)N(C[C@@]1(C#Cc3ccc(CN4CCCC4)nc3)NC(=O)NC1=O)C2 [Compound 413D] | < 5
12 | COc1ccc2c(c1)C(=O)N(C[C@@]1(C#Cc3ccc(C4(N)CC4)nc3)NC(=O)NC1=O)C2 [Compound 414B] | 5 to 25
13 | COc1ccc2c(c1)C(=O)N(C[C@@]1(C#Cc3ccc[nH]c3=O)NC(=O)NC1=O)C2 [Compound 417C] | < 5
14 | COc1ccc2c(c1)C(=O)N(C[C@@]1(C#Cc3ccc4nn(C)cc4c3)NC(=O)NC1=O)C2 [Compound 421] | < 5
15 | COc1ccc2c(c1)C(=O)N(C[C@@]1(C#Cc3ccc4nc(C)ccc4c3)NC(=O)NC1=O)C2 [Compound 422] | < 5
16 | COc1ccc2c(c1)C(=O)N(C[C@@]1(C#Cc3ccc4cnn(C)c4c3)NC(=O)NC1=O)C2 [Compound 423] | < 5
17 | COc1ccc2c(c1)C(=O)N(C[C@@]1(C#Cc3ccc4cn(C)nc4c3)NC(=O)NC1=O)C2 [Compound 424] | < 5
18 | COc1ccc2c(c1)C(=O)N(C[C@@]1(C#Cc3cncc4ccccc34)NC(=O)NC1=O)C2 [Compound 425] | < 5
19 | COc1ccc2c(c1)C(=O)N(C[C@@]1(C#Cc3ccc(F)c(C(F)(F)F)c3)NC(=O)NC1=O)C2 [Compound 426] | < 5
20 | COc1ccc2c(c1)C(=O)N(C[C@@]1(C#Cc3ccc(C)c(F)c3)NC(=O)NC1=O)C2 [Compound 427] | < 5
21 | COc1ccc2c(c1)C(=O)N(C[C@@]1(C#Cc3ccc(C)c(Cl)c3)NC(=O)NC1=O)C2 [Compound 428] | < 5
22 | COc1ccc2c(c1)C(=O)N(C[C@@]1(C#Cc3cccc(OC(F)(F)F)c3)NC(=O)NC1=O)C2 [Compound 429] | < 5
23 | COc1ccc2c(c1)C(=O)N(C[C@@]1(C#Cc3cncc(F)c3)NC(=O)NC1=O)C2 [Compound 430] | < 5
24 | COc1ccc2c(c1)C(=O)N(C[C@@]1(C#Cc3ccc(F)c(C)c3)NC(=O)NC1=O)C2 [Compound 432] | < 5

Row | Structure (SMILES) | Ki [nM]
25 | COc1ccc2c(c1)C(=O)N(C[C@@]1(C#Cc3ccc(F)cc3Cl)NC(=O)NC1=O)C2 [Compound 433] | < 5
26 | COc1ccc2c(c1)C(=O)N(C[C@@]1(C#Cc3cc(F)c(F)c(OC)c3)NC(=O)NC1=O)C2 [Compound 434] | < 5
27 | COc1ccc2c(c1)C(=O)N(C[C@@]1(C#Cc3cc(O)c(F)c(F)c3)NC(=O)NC1=O)C2 [Compound 435] | < 5
28 | COc1ccc2c(c1)C(=O)N(C[C@@]1(C#Cc3ccc(C(F)(F)F)c(F)c3)NC(=O)NC1=O)C2 [Compound 436] | < 5
29 | COc1ccc2c(c1)C(=O)N(C[C@@]1(C#Cc3cccc(F)c3C)NC(=O)NC1=O)C2 [Compound 437] | < 5
30 | COc1ccc2c(c1)C(=O)N(C[C@@]1(C#Cc3cccc(Cl)c3C)NC(=O)NC1=O)C2 [Compound 438] | < 5
31 | COc1ccc2c(c1)C(=O)N(C[C@@]1(C#Cc3cc(C)cc(F)c3)NC(=O)NC1=O)C2 [Compound 439] | < 5
32 | COc1ccc2c(c1)C(=O)N(C[C@@]1(C#Cc3cc(F)cc(C(F)(F)F)c3)NC(=O)NC1=O)C2 [Compound 440] | < 5
33 | COc1ccc2c(c1)C(=O)N(C[C@@]1(C#Cc3cccc4ncccc34)NC(=O)NC1=O)C2 [Compound 441] | < 5
34 | COc1ccc2c(c1)C(=O)N(C[C@@]1(C#Cc3cccc4cnccc34)NC(=O)NC1=O)C2 [Compound 442] | < 5
35 | COc1ccc2c(c1)C(=O)N(C[C@@]1(C#Cc3cnc4ccccc4c3)NC(=O)NC1=O)C2 [Compound 443] | < 5
36 | COc1ccc2c(c1)C(=O)N(C[C@@]1(C#Cc3ccc4c(cnn4C)c3)NC(=O)NC1=O)C2 [Compound 444] | < 5
37 | COc1ccc2c(c1)C(=O)N(C[C@@]1(C#Cc3cccc(F)c3)NC(=O)NC1=O)C2 [Compound 445] | < 5
38 | COc1ccc2c(c1)C(=O)N(C[C@@]1(C#Cc3cccc(Cl)c3)NC(=O)NC1=O)C2 [Compound 446] | < 5
39 | COc1ccc2c(c1)C(=O)N(C[C@@]1(C#Cc3cccc(C#N)c3)NC(=O)NC1=O)C2 [Compound 447] | < 5
40 | COc1ccc2c(c1)C(=O)N(C[C@@]1(C#Cc3cc(F)cc(F)c3)NC(=O)NC1=O)C2 [Compound 448] | < 5
41 | COc1ccc2c(c1)C(=O)N(C[C@@]1(C#Cc3cc(Cl)cc(Cl)c3)NC(=O)NC1=O)C2 [Compound 449] | < 5
42 | COc1ccc2c(c1)C(=O)N(C[C@@]1(C#Cc3cncnc3)NC(=O)NC1=O)C2 [Compound 450] | < 5
43 | COc1ccc2c(c1)C(=O)N(C[C@@]1(C#Cc3cccc(S(C)(=O)=O)c3)NC(=O)NC1=O)C2 [Compound 451] | < 5
44 | COc1ccc2c(c1)C(=O)N(C[C@@]1(C#Cc3ccc(Cl)c(F)c3)NC(=O)NC1=O)C2 [Compound 452] | < 5
45 | COc1ccc2c(c1)C(=O)N(C[C@@]1(C#Cc3cnc(N)nc3)NC(=O)NC1=O)C2 [Compound 453] | < 5
46 | COc1ccc2c(c1)C(=O)N(C[C@@]1(C#Cc3nccs3)NC(=O)NC1=O)C2 [Compound 454] | < 5
47 | COc1ccc2c(c1)C(=O)N(C[C@@]1(C#Cc3cscn3)NC(=O)NC1=O)C2 [Compound 455] | < 5
48 | COc1ccc2c(c1)C(=O)N(C[C@@]1(C#Cc3cc(F)cc(Cl)c3)NC(=O)NC1=O)C2 [Compound 456] | < 5

Row | Structure (SMILES) | Ki [nM]
49 | COc1ccc2c(c1)C(=O)N(C[C@@]1(C#Cc3c(C)nn(C)c3C)NC(=O)NC1=O)C2 [Compound 457] | < 5
50 | COc1ccc2c(c1)C(=O)N(C[C@@]1(C#Cc3cc(F)cc(C#N)c3)NC(=O)NC1=O)C2 [Compound 458] | < 5
51 | COc1ccc2c(c1)C(=O)N(C[C@@]1(C#Cc3cccc(C(F)(F)F)c3)NC(=O)NC1=O)C2 [Compound 459] | < 5
52 | COc1ccc2c(c1)C(=O)N(C[C@@]1(C#Cc3ccc4nccn4c3)NC(=O)NC1=O)C2 [Compound 460] | < 5
53 | COc1ccc2c(c1)C(=O)N(C[C@@]1(C#Cc3cc(F)cc(F)c3F)NC(=O)NC1=O)C2 [Compound 461] | < 5
54 | COc1ccc2c(c1)C(=O)N(C[C@@]1(C#Cc3cc(Cl)cc(C#N)c3)NC(=O)NC1=O)C2 [Compound 462] | < 5
55 | COc1ccc2c(c1)C(=O)N(C[C@@]1(C#Cc3cccs3)NC(=O)NC1=O)C2 [Compound 463] | < 5
56 | COc1ccc2c(c1)C(=O)N(C[C@@]1(C#Cc3ccsc3)NC(=O)NC1=O)C2 [Compound 464] | < 5
57 | COc1ccc2c(c1)C(=O)N(C[C@@]1(C#Cc3csc(C(C)C)n3)NC(=O)NC1=O)C2 [Compound 465] | < 5
58 | COc1ccc2c(c1)C(=O)N(C[C@@]1(C#Cc3c(F)ccc(F)c3F)NC(=O)NC1=O)C2 [Compound 466] | < 5
59 | COc1ccc2c(c1)C(=O)N(C[C@@]1(C#Cc3csc(C)n3)NC(=O)NC1=O)C2 [Compound 467] | < 5
60 | COc1ccc2c(c1)C(=O)N(C[C@@]1(C#Cc3ncccn3)NC(=O)NC1=O)C2 [Compound 468] | < 5
61 | COc1ccc2c(c1)C(=O)N(C[C@@]1(C#Cc3cnccn3)NC(=O)NC1=O)C2 [Compound 469] | < 5
62 | COc1ccc2c(c1)C(=O)N(C[C@@]1(C#Cc3ncnc4ccccc34)NC(=O)NC1=O)C2 [Compound 470] | < 5
63 | COc1ccc2c(c1)C(=O)N(C[C@@]1(C#Cc3cnc(C)s3)NC(=O)NC1=O)C2 [Compound 471] | < 5
64 | COc1ccc2c(c1)C(=O)N(C[C@@]1(C#Cc3ccc(C4CC4)nc3)NC(=O)NC1=O)C2 [Compound 472] | < 5
65 | COc1ccc2c(c1)C(=O)N(C[C@@]1(C#Cc3cncc(C4(N)CC4)c3)NC(=O)NC1=O)C2 [Compound 480] | < 5
66 | COc1ccc2c(c1)C(=O)N(C[C@@]1(C#Cc3cncc(C#N)c3)NC(=O)NC1=O)C2 [Compound 481] | < 5
67 | COc1ccc2c(c1)C(=O)N(C[C@@]1(C#Cc3cncc(-n4cccn4)c3)NC(=O)NC1=O)C2 [Compound 482B] | < 5
68 | COc1ccc2c(c1)C(=O)N(C[C@@]1(C#Cc3cncc(-n4ccnc4C)c3)NC(=O)NC1=O)C2 [Compound 482C] | < 5
69 | COc1ccc2c(c1)C(=O)N(C[C@@]1(C#Cc3cncc(N4CCOCC4)c3)NC(=O)NC1=O)C2 [Compound 482] | < 5
70 | COc1ccc2c(c1)C(=O)N(C[C@@]1(C#Cc3ccc(F)c(F)c3)NC(=O)NC1=O)C2 [Compound 483] | < 5
71 | COc1ccc2c(c1)C(=O)N(C[C@@]1(C#Cc3ccc(OC(F)(F)F)cc3)NC(=O)NC1=O)C2 [Compound 484] | < 5
72 | COc1ccc2c(c1)C(=O)N(C[C@@]1(C#Cc3ccc(Cl)cc3)NC(=O)NC1=O)C2 [Compound 485] | < 5

Same assay, conditions: rhTACEc 70 pM, 30 μM SPDL-3, 90 min pre-incubation at 25° C.; read-out: Ki (nM), TACE inhibitory activity

Row | Structure (SMILES) | Ki [nM]
73 | COc1ccc2c(c1)C(=O)N(C[C@@]1(C#Cc3cccnc3)NC(=O)NC1=O)C2 [Compound 400B] | 0.44
74 | COc1ccc2c(c1)C(=O)N(C[C@@]1(C#Cc3cccc4cnccc34)NC(=O)NC1=O)C2 [Compound 442] | 0.11
